Laboratory results published in article PMC3192013 (ChemMedChem, 2011).

system: Stat3 (Stat3–Stat3:DNA complex, EMSA); test: EMSA, Stat3-Stat3:DNA disruption; assay type: biochemical; details: nuclear extract

SMILES	IC50
Cc1ccc(S(=O)(=O)NCC(=O)Nc2ccc(C(=O)O)c(O)c2)cc1 [compound 9, SF-1-082]	> 300 µM
Cc1ccc(S(=O)(=O)N(C)CC(=O)Nc2ccc(C(=O)O)c(O)c2)cc1 [compound 10, 10]	> 300 µM
Cc1ccc(S(=O)(=O)N(CC(=O)Nc2ccc(C(=O)O)c(O)c2)C(=O)OC(C)(C)C)cc1 [compound 11, 11]	> 300 µM
Cc1ccc(S(=O)(=O)OCC(=O)N(Cc2ccccc2)c2ccc(C(=O)O)c(O)c2)cc1 [compound 12, SF-1-120]	> 300 µM
Cc1ccc(S(=O)(=O)NCC(=O)N(Cc2ccccc2)c2ccc(C(=O)O)c(O)c2)cc1 [compound 13, 13]	> 300 µM
Cc1ccc(S(=O)(=O)N(CC(=O)N(Cc2ccccc2)c2ccc(C(=O)O)c(O)c2)C(=O)OC(C)(C)C)cc1 [compound 15, 15]	> 300 µM
Cc1ccc(S(=O)(=O)NCC(=O)N(Cc2ccc(C3CCCCC3)cc2)c2ccc(C(=O)O)c(O)c2)cc1 [compound 41, SF-1-083]	95 ± 9 µM

Further lines, results first:

IC50	SMILES
260 ± 47 µM	Cc1ccc(S(=O)(=O)N(C)CC(=O)N(Cc2ccc(C#N)cc2)c2ccc(C(=O)O)c(O)c2)cc1 [27c, SF-1-073]
> 300 µM	Cc1ccc(S(=O)(=O)N(C)CC(=O)N(CC2CCCCC2)c2ccc(C(=O)O)c(O)c2)cc1 [27e, 27 e]
194 ± 47 µM	Cc1ccc(S(=O)(=O)N(C)CC(=O)N(Cc2ccc(C(C)(C)C)cc2)c2ccc(C(=O)O)c(O)c2)cc1 [27f, SF-1-068]
> 300 µM	Cc1ccc(S(=O)(=O)N(C)CC(=O)N(CC2CCN(C(=O)OC(C)(C)C)CC2)c2ccc(C(=O)O)c(O)c2)cc1 [27jb, 27 jb]
> 300 µM	Cc1ccc(S(=O)(=O)N(C)CC(=O)N(CC2CCN(c3ccc(C#N)cc3)CC2)c2ccc(C(=O)O)c(O)c2)cc1 [27jc, 27 jc]
> 300 µM	Cc1ccc(S(=O)(=O)N(C)CC(=O)N(CC2CCN(c3ncccn3)CC2)c2ccc(C(=O)O)c(O)c2)cc1 [27jd, 27 jd]
> 300 µM	Cc1ccc(S(=O)(=O)N(C)CC(=O)N(Cc2ccc(C3CCN(C(=O)C(F)(F)F)CC3)cc2)c2ccc(C(=O)O)c(O)c2)cc1 [27ka, 27 ka]
> 300 µM	Cc1ccc(S(=O)(=O)N(C)CC(=O)N(Cc2ccc(C3CCNCC3)cc2)c2ccc(C(=O)O)c(O)c2)cc1 [27kb, 27 kb]
> 300 µM	Cc1ccc(S(=O)(=O)N(C)CC(=O)N(Cc2ccc(C3CCN(C(=O)OC(C)(C)C)CC3)cc2)c2ccc(C(=O)O)c(O)c2)cc1 [27kc, 27 kc]
45 ± 12 µM	Cc1ccc(S(=O)(=O)N(C)CC(=O)N(Cc2ccc(C3CCN(c4ccc(C#N)cc4)CC3)cc2)c2ccc(C(=O)O)c(O)c2)cc1 [27kd, 27 kd]
50 ± 15 µM	Cc1ccc(S(=O)(=O)N(C)CC(=O)N(Cc2ccc(C3CCN(S(=O)(=O)c4ccc(C#N)cc4)CC3)cc2)c2ccc(C(=O)O)c(O)c2)cc1 [27kg, 27 kg]

same assay, conditions: nuclear extract; Table 2 prints 295 ± 35

IC50	SMILES
292 ± 35 µM	Cc1ccc(S(=O)(=O)N(C)CC(=O)N(Cc2ccccc2)c2ccc(C(=O)O)c(O)c2)cc1 [compound 14, SF-1-062]

same assay, conditions: read-out: [drawing 30] / IC50; nuclear extract

IC50	SMILES
191 ± 8 µM	COC(=O)c1cccc(-c2ccc(CN(C(=O)CN(C)S(=O)(=O)c3ccc(C)cc3)c3ccc(C(=O)O)c(O)c3)cc2)c1 [27la, 27 la]
> 300 µM	Cc1ccc(S(=O)(=O)N(C)CC(=O)N(Cc2ccc(-c3cccc(C(N)=O)c3)cc2)c2ccc(C(=O)O)c(O)c2)cc1 [27lc, 27 lc]
274 ± 10 µM	Cc1ccc(S(=O)(=O)N(C)CC(=O)N(Cc2ccc(-c3ccc(C#N)cc3)cc2)c2ccc(C(=O)O)c(O)c2)cc1 [27lf, 27 lf]
> 300 µM	Cc1ccc(S(=O)(=O)N(C)CC(=O)N(Cc2ccc(-c3ccc(C(N)=O)cc3)cc2)c2ccc(C(=O)O)c(O)c2)cc1 [27lg, 27 lg]

same assay, conditions: read-out: [drawing 30] / IC50; nuclear extract; label printed 27 gld

IC50	SMILES
141 ± 10 µM	COC(=O)c1ccc(-c2ccc(CN(C(=O)CN(C)S(=O)(=O)c3ccc(C)cc3)c3ccc(C(=O)O)c(O)c3)cc2)cc1 [27ld, 27 ld]

same assay, conditions: read-out: [drawing 31] / IC50; nuclear extract

IC50	SMILES
43 ± 1.3 µM	Cc1ccc(S(=O)(=O)N(C)CC(=O)N(Cc2ccc(-c3ccc(-c4ccc(C(N)=O)cc4)cc3)cc2)c2ccc(C(=O)O)c(O)c2)cc1 [27nh, 27 nh]

system: Stat3 (Stat3–Stat3:DNA complex, EMSA); test: in vitro Stat3 inhibition; assay type: biochemical; details: assay not given

IC50	SMILES
> 300 µM	O=C(O)c1ccc(N(Cc2ccc(C3CCCCC3)cc2)C(=O)CO)cc1O [compound 47, primary alcohol 47]
